Source: US20240301409A1, “Chemically Modified Small Activating RNA” (RACTIGEN THERAPEUTICS, priority 2021, published 2024)
Oligonucleotides are written 5' to 3', each unit as a sugar letter and its base; * is a phosphorothioate linkage, no mark a phosphodiester; rarer units and linkages stand in square brackets, end groups in braces. Plain capitals give the bases only. m = 2'-O-methyl; r = 2'-OH (RNA); f = 2'-fluoro

Assays:
TNF-α = experiment: PBMC cytokine release assay, TNF-α (ELISA); type: cell-based, human; settings: 10 nM, 24 hours
Experimental: Data represent mean±SD of two independent experiments. […] The values below the line indicate suppressed activities.
Each treatment group was analyzed in triplicate.

[1] = tested on: Rag1-40 target sequence in the 3′ UTR of firefly luciferase, COS-1 cells; experiment: Analysis of off-target effects (pOff-Target dual luciferase reporter in COS-1 cells); settings: lysed 48 hours after transfection, luciferase activity
RNase A = target: T1, RNase A (Bos taurus, UniProt P61823); experiment: saRNA stability analysis in the presence of RNase A (agarose gel); settings: incubation 0 to 96 hours
T1 sequence (P61823 27-150): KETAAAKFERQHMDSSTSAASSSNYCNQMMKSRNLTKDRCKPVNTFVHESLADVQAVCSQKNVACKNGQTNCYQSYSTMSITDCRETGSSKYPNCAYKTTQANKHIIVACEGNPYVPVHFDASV

[2] = Stability of RNA duplex in human urine (agarose gel); settings: 37° C.
Experimental: Double-stranded RNA (7.5 μL, 10 μM) diluted in 17.5 μL PBS was incubated with 25 μL human fresh urine at 37° C. for 0, 1, 24 and 48 hours, respectively. The duplexes obtained at each time point indicated above were each added to 1 μL of 10× loading buffer, and then frozen in liquid nitrogen. After incubation, all samples were detected for the double-stranded RNA by 4% agarose gel electrophoresis, and the content of each duplex was analyzed by Image J software.
To further test the stability of the chemically modified double-stranded saRNA in human urine, the duplexes were incubated in urine for different durations ranging from 0 to 48 hours.

INF-α = experiment: PBMC cytokine release assay, INF-α (ELISA); settings: PBMC, 10 nM, 24 hours
Experimental: Cells were treated with the indicated duplexes at a final concentration of 10 nM or lipopolysaccharide (LPS) as a positive control for 24 hours, respectively. The levels of INF-α and TNF-α in the cell supernatant were detected by ELISA kit. […] Data represent mean±SD of two independent experiments.
Human peripheral blood mononuclear cells (Allcells, Alameda, CA) were seeded in a 96-well microplate at a density of approximately 10×10^4 cells/well. Transfection of dsRNA was performed using RNAiMAX (Invitrogen, Carlsbad, CA) following manufacturer's instructions. Supernatants were collected 24 hours after transfection and immediately assayed for IFN-α and TNF-α production using ELISA kit (R&D Systems). Each treatment group was analyzed in triplicate.
To assess the immunostimulatory effect of chemically modified saRNAs, human peripheral blood mononuclear cells (PBMC) from healthy donors were incubated with the double-stranded saRNAs, and INF-α and TNF-α levels in the supernatant of treated cells after 24 hours were measured.

Substance	immunostimulatory effect (TNF-α induction) compared with Rag1-40, in words (TNF-α)	off-target effect compared to unmodified Rag1-40, in words [1]	degradation of duplex at 96 hours (RNase A)	degradation of duplex at 48 hours [2]	immunostimulatory activity (INF-α) compared with Rag1-40, in words (INF-α)
Rag1-40-3: saRNA duplex: sense mCmCAACUCAUUCUCCAAGmUmC (SEQ ID NO 5); antisense fUmAfCfUfUmGmGmAmGmAmAfUmGmAmGfUfUmGmGfCmA (SEQ ID NO 8) (sense mCmCrArArCrUrCrArUrUrCrUrCrCrArArGmUmC)	unchanged immunostimulatory activity	completely inhibited	little or no signs of degradation		
Rag1-40-17: saRNA duplex: sense mCmCAACUCAUUCUCCAAG*U*C (SEQ ID NO 15); antisense fUAfCfUfUGGAGAAfUGAGfUfUGGfCA (SEQ ID NO 6) (sense CCAACUCAUUCUCCAAGUC; antisense UACUUGGAGAAUGAGUUGGCA; 2'-OMe, 2'-F, phosphorothioates; modified_base (1)..(2) (1,2)=2′-O-methyl(2′-OMe); modified_base (17)..(19) (17,18,19)=phosphorothioate (PS) backbone modification; modified_base (1)..(20) (1,3,4,5,12,16,17,20)=2′-fluoro)		mitigated or similar off-target effects	little or no signs of degradation	no sign of degradation	
Rag1-40-25: saRNA duplex: sense fCfCAACUCAUUCUCCAAG*U*C (SEQ ID NO 16); antisense fUAfCfUfUGGAGAAfUGAGfUfUGGfCA (SEQ ID NO 6) (sense CCAACUCAUUCUCCAAGUC; antisense UACUUGGAGAAUGAGUUGGCA; 2'-F, phosphorothioates; modified_base (1)..(2) (1,2)=2′-fluoro; modified_base (17)..(19) (17,18,19)=phosphorothioate (PS) backbone modification; modified_base (1)..(20) (1,3,4,5,12,16,17,20)=2′-fluoro)		mitigated or similar off-target effects	little or no signs of degradation	no sign of degradation	
Rag1-40-29: saRNA duplex: sense fCfCAACUCAUUCUCCAAG*U*C (SEQ ID NO 16); antisense UACUfUGGAGAAfUGAGUfUGG*fC*A (SEQ ID NO 10) (sense CCAACUCAUUCUCCAAGUC; antisense UACUUGGAGAAUGAGUUGGCA; 2'-F, phosphorothioates; modified_base (1)..(2) (1,2)=2′-fluoro; modified_base (17)..(19) (17,18,19)=phosphorothioate (PS) backbone modification; modified_base (5)..(20) (5,12,17,20)=2′-fluoro; modified_base (19)..(21) (19,20,21)=phosphorothioate (PS) backbone modification)		mitigated or similar off-target effects		mostly degraded	reduced immunostimulatory activity
